The test system of data set [1] is Id-1. Briefly: Id-1 expression in primary patient-derived BRC25 cells. It is filed as cell-based, human. As to the method:
(§1) Quantitative Western analysis: Cells are cultured and treated in 6-well dishes. After the cells are washed twice with cold PBS, lysis buffer is added. The cells are then lysed by freezing for 10 min at −70° C. and then thawing at ambient temperature. The cell lysate is collected and the protein content is determined by using Bradford reagent. Equal amounts of protein are heated at 90° C. in Laemmli sample buffer which also included β-mercaptoethanol. The samples are then loaded onto a precast SDS-PAGE gel (Bio-Rad Laboratories, Hercules, CA). After which, proteins are then electroblotted onto an Immobilon membrane (Millipore, Billerica, MA) overnight at 2-4° C. The membrane is then blocked for 1 hour with 5% nonfat dry milk which included TBS+Tween. The membranes are then incubated with an anti-Id-1 primary antibody, and then an appropriate secondary antibody was used. Blots are incubated for 45 min and then washed 4 times with TBS+Tween for 15 min each. […]
Effects of Compound-5B on breast cancer cell proliferation, Id-1 expression and invasion in culture. […] The ability of the cells to migrate and invade in modified Boyden chambers was determined. The percentage relative invasion was calculated as the effect on treated cells/vehicle cells×100. […]

In data set [2] the target is T1, ADRB1 (β-Adrenergic receptor) (Homo sapiens, UniProt P08588).
T1 construct: purchased Eurofin's
Briefly: SAFETY scan E/IC50 ELECT, ADRB1. It is filed as biochemical. The note with it: read-out: inhibition against ADRB1 (mild).

The next data set concerns DU145 (prostate). Briefly: Cell proliferation, DU145 prostate cancer cells. The note with it: Homo sapiens, DU-145, read-out: IC50 category. It is filed as cell-based. An excerpt: Effects of Compound-5B on cell proliferation in additional cancer cells: To determine whether Compound-5B would have broad based anticancer activity, we study whether Compound-5B would be effective at inhibiting cell proliferation in a variety of cancers overexpressing Id-1. The assay conditions used were identical to those presented for breast and pancreatic cancers. Indeed, Compound-5B was potent at inhibiting cell proliferation in blood cancer (leukemia), glioblastoma, prostate, and ovarian cancer.

For the next data set, the system named is 4T1 cells. Briefly: 4T1 lung metastasis model in BALB/c mice. It is filed as in vivo, mouse. The note with it: 4T1 tail vein, i.p. once a day, six days a week, three weeks. As to the method: (§2) Antitumor activity of Compound-5B in vivo in breast cancer. Based on the activity of Compound-5B in culture, the antitumor activity of Compound-5B was tested in vivo in two models of breast cancer (FIG. 4). Compound-5B produced a potent inhibition of Id-1 expression in human MDA-MB231 cells (FIG. 1A). We also determined whether it produced a similar effect in mouse 4T1 breast cancer cells. This cell line is commonly used for seeding a lung metastatic model in mice. […] LC=loading control (FIG. 4A). […] Lung metastases were generated in BALB/c mice by tail vein injection of 4×10^4 4T1 cells. Two days after the injection, the tumor bearing mice were injected i.p. once a day, six days a week, with vehicle or Compound 5B three weeks. Lung metastasis % (total metastatic foci in treated/vehicle×100) was evaluated (FIG. 4B). […] Animals with established tumors (average volume of 100 mm^3) were randomized and treated once daily, 6 days a week, with i.p., injections of vehicle, or 1 mg/kg Compound-5B, tumors were measured once weekly by an operator blinded to the treatment groups. Changes in tumor volume (mm^3) were calculated as (length×width2)/2. *indicates statistically significant differences between vehicle and Compound-5B (p<0.05, Two-way ANOVA repeated measures, and Tukey's multiple comparisons test).

For another data set, the target named is T2, CYP2C9 (Homo sapiens, UniProt P11712).
T2 construct: purchased Eurofins
Briefly: CYP2C9 inhibition. The note with it: 10 μM. It is filed as in vitro ADME. As to the method:
(§3) Evaluating ADME of Compound-5B in vitro. It is important to evaluate ADME first in culture as it allows for the selection of the best candidate for PK analysis in vivo. ADME analysis of Compound-5B was performed by Eurofins.

For a further data set, the system named is BXPC-3. Briefly: CellTiter-Glo cell proliferation, BxPC-3 pancreatic cancer cells. Type of data set: cell-based. The note with it: Homo sapiens, read-out: IC50 category. The text has this:
(§4) Cell culture and treatment of pancreatic cancer cell lines: Pancreatic cancer cells lines BxPC-3, SW1990, and PANC-1 used in the experiments presented herein can be obtained from ATCC. The cells can be cultured and passaged in complete growth medium (RPMI-1640, Dulbecco's Modified Eagle Medium, or Leibovitz's L-15 medium) that has been supplemented with fetal bovine serum to a final concentration of 10%.
(§5) Effects of Compound-5B on proliferation and Id-1 expression in pancreatic cell lines. Compound-5B was next tested for inhibition of cell viability/proliferation in the three pancreatic cancer cell lines and two primary patient-derived cancer cell lines. Compound-5B inhibited cell viability/proliferation of all the cancer cell lines (Table 2). The culturing condition for the pancreatic cell lines was similar to those used in the breast cancer lines, with the exception of the primary patient-derived pancreatic cancer cell lines (PANC9 and PANC13). […] Cell proliferation of pancreatic cells in the presence of drug was measured using the CellTiter-Glo luminescent Assay and IC50 values were calculated (Table 2). […]

Another data set concerns MDA-MB231 cells. Briefly: MDA-MB231 mammary fat pad primary tumor model in athymic nu/nu mice. It is filed as in vivo, mouse. Conditions: MDA-MB231, 1 mg/kg i.p. once daily, 6 days a week. As to the method: as §2
Data set [3] is described as follows: Mouse liver microsome stability (Eurofins ADME). Type of data set: in vitro ADME. As to the method: as §3
The subject of another data set is SW1990. Briefly: CellTiter-Glo cell proliferation, SW1990 pancreatic cancer cells. It is filed as cell-based. Conditions: Homo sapiens, read-out: IC50 category.
From the text: as §4, §5

A further data set deals with 468 kinases. Briefly: Eurofin's Kinome scan assay. Conditions: 1 μM and 10 μM.
The subject of data set [4] is Id-1. Briefly: Id-1 protein expression in 4T1 breast cancer cells. Type of data set: cell-based. The note with it: mouse 4T1 breast cancer cells. The protocol: as §1, with “C.” for “C. The membrane is then blocked for 1 hour with 5% nonfat dry milk which included TBS+Tween. The membranes are then incubated with an anti-Id-1 primary antibody, and then an appropriate secondary antibody was used. Blots are incubated for 45 min and then washed 4 times with TBS+Tween for 15 min each.”
Antitumor activity of Compound-5B in vivo in breast cancer. […] We also determined whether it produced a similar effect in mouse 4T1 breast cancer cells. […] Lung metastasis % (total metastatic foci in treated/vehicle×100) was evaluated (FIG. 4B). […] Animals with established tumors (average volume of 100 mm^3) were randomized and treated once daily, 6 days a week, with i.p., injections of vehicle, or 1 mg/kg Compound-5B, tumors were measured once weekly by an operator blinded to the treatment groups. Changes in tumor volume (mm^3) were calculated as (length×width2)/2. *indicates statistically significant differences between vehicle and Compound-5B (p<0.05, Two-way ANOVA repeated measures, and Tukey's multiple comparisons test).

A value given as a limit tells only on which side of the number the result lay.

T1 sequence (P08588 whole entry): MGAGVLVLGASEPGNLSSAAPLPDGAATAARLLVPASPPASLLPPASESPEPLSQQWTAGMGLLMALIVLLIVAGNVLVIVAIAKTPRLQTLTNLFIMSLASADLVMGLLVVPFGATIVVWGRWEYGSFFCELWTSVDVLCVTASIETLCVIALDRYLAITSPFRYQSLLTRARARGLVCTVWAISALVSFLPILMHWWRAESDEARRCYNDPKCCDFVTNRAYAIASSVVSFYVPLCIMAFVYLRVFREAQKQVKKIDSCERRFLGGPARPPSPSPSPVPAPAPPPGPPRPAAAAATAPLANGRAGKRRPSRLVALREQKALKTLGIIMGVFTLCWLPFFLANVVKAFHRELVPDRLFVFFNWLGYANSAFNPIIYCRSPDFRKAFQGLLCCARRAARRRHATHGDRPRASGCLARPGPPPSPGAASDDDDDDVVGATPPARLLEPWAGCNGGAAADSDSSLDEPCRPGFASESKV
T2 sequence (P11712 whole entry): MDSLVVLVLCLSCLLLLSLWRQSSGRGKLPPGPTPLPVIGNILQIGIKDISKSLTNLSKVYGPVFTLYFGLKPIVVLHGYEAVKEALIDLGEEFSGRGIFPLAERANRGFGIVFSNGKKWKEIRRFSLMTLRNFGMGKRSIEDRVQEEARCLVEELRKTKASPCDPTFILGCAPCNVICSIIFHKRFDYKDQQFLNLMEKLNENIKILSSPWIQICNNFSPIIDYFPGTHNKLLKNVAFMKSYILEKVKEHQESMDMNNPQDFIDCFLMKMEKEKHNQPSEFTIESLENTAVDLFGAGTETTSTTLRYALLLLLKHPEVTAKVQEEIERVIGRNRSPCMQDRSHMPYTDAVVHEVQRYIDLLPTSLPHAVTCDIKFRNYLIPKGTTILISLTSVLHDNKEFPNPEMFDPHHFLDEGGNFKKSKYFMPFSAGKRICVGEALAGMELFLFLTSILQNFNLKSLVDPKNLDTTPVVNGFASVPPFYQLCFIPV
Description for 468 kinases: Eurofin's Kinome scan assay was used to screen Compound-5B against 468 kinases at 1 μM and 10 μM concentrations. […] In order to understand any potential pharmacological cross reactivity, a known contributor to clinical adverse drug reactions Compound-5B was tested in SAFETY scan E/IC50 ELECT.

For `CCCCCCC(C)(C)c1cc(O)c(C(=O)Nc2ccccc2)c(O)c1` [Compound 5B, 2,6-dihydroxy-4-(2-methyloctan-2-yl)-N-phenylbenzamide], the “inhibition of Id-1 expression” value in the data set with Id-1 [1] is on record as “significant potency”. Also, the IC50 is 640 to 750 nM in [2], less than 500 nM in the data set with DU145 (prostate), 1000 to 5000 nM with BXPC-3 and less than 500 nM in the data set on SW1990. Also, the lung metastasis result in the data set with 4T1 cells is “inhibits breast cancer metastasis”. Moreover, the “inhibition of CYP2C9” value at CYP2C9 is recorded as “some inhibition”. Moreover, in the data set with MDA-MB231 cells, the primary tumor growth entry is “able to inhibit primary tumor growth”. The “clearance (microsomal stability assays)” value in data set [3] was “acceptable”. For the same compound, in data set [3], the “half-life (microsomal stability assays)” value is given as “acceptable”. In data set [3], the “stability in mouse liver microsomes” value is listed as “good”. In addition, in the data set with 468 kinases, the “inhibition of 468 kinases” value is listed as “No significant inhibition”. Also, the Id-1 protein expression entry in the data set with Id-1 [4] was “downregulation of Id-1 protein expression”.

For the origin of these results see patent US12612358B2, “Resorcinol-based compounds and uses thereof” (priority 2020, dated 2026).
